Patent US9695155B2, “Herbicidal substituted pyrimidinyloxy benzene compounds” (E. I. DU PONT DE NEMOURS AND COMPANY, priority 2013, dated 2017)

How the values were obtained:
arrowleaf sida = assay: Test E preemergence; type: in vivo, Sida rhombifolia; conditions: for Arrowleaf Sida plant response rating: scale 0 to 100 (0 no effect, 100 complete control); for Plant response rating, Arrowleaf Sida: scale 0 to 100, 0 no effect, 100 complete control
Summary of the method: (§1)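 Test chemicals formulated in a non-phytotoxic solvent mixture containing a surfactant were applied preemergence to seeds in silt loam soil or postemergence to plants at the 1- to 4-leaf stage in potting mix. After 14 to 21 days in a greenhouse, injury was visually rated against controls on a 0-100 scale (0 = no effect, 100 = complete control).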

soybean = assay: Test E preemergence; type: in vivo, Glycine max; conditions: for Soybean plant response rating: scale 0 to 100 (0 no effect, 100 complete control); for Plant response rating, Soybean: scale 0 to 100, 0 no effect, 100 complete control
Summary of the method: as §1

corn [1] = assay: Test E preemergence; type: in vivo, Zea mays; conditions: for Corn plant response rating: scale 0 to 100 (0 no effect, 100 complete control); for Plant response rating, Corn: scale 0 to 100, 0 no effect, 100 complete control
Summary of the method: as §1

palmer pigweed [2] = assay: Test E preemergence; type: in vivo, Amaranthus palmeri; conditions: for Pigweed, Palmer plant response rating: scale 0 to 100 (0 no effect, 100 complete control); for Plant response rating, Pigweed, Palmer: scale 0 to 100, 0 no effect, 100 complete control
Summary of the method: as §1

Italian ryegrass = assay: Test E postemergence; type: in vivo, Lolium multiflorum; conditions: Lolium multiflorum, post-emergence, read-out: Plant response rating, Ryegrass, Italian
Summary of the method: as §1

green foxtail = assay: Test E preemergence; type: in vivo, Setaria viridis; conditions: for Foxtail, Green plant response rating: scale 0 to 100 (0 no effect, 100 complete control); for Plant response rating, Foxtail, Green: scale 0 to 100, 0 no effect, 100 complete control
Summary of the method: as §1

morningglory = assay: Test E preemergence; type: in vivo, Ipomoea coccinea; conditions: for Morningglory plant response rating: scale 0 to 100 (0 no effect, 100 complete control); for Plant response rating, Morningglory: scale 0 to 100, 0 no effect, 100 complete control
Summary of the method: as §1

giant foxtail = assay: Test E preemergence; type: in vivo, Setaria faberii; conditions: for Foxtail, Giant plant response rating: scale 0 to 100 (0 no effect, 100 complete control); for Plant response rating, Foxtail, Giant: scale 0 to 100, 0 no effect, 100 complete control
Summary of the method: as §1

Brazilian crabgrass = assay: Test E postemergence; type: in vivo, Digitaria horizontalis; conditions: Digitaria horizontalis, post-emergence, read-out: Plant response rating, Crabgrass, Brazil
Summary of the method: as §1

field bindweed = assay: Test E preemergence; type: in vivo, Convolvulus arvensis; conditions: for Field Bindweed plant response rating: scale 0 to 100 (0 no effect, 100 complete control); for Plant response rating, Field Bindweed: scale 0 to 100, 0 no effect, 100 complete control
Summary of the method: as §1

barnyardgrass = assay: Test E postemergence; type: in vivo, Echinochloa crus-galli; conditions: Echinochloa crus-galli, post-emergence, read-out: Plant response rating, Barnyardgrass
Summary of the method: as §1

goosegrass = assay: Test E preemergence; type: in vivo, Eleusine indica; conditions: for Goosegrass plant response rating: scale 0 to 100 (0 no effect, 100 complete control); for Plant response rating, Goosegrass: scale 0 to 100, 0 no effect, 100 complete control
Summary of the method: as §1

velvetleaf = assay: Test E preemergence; type: in vivo, Abutilon theophrasti; conditions: for Velvetleaf plant response rating: scale 0 to 100 (0 no effect, 100 complete control); for Plant response rating, Velvetleaf: scale 0 to 100, 0 no effect, 100 complete control
Summary of the method: as §1

surinam grass = assay: Test E preemergence; type: in vivo, Brachiaria decumbens; conditions: for Surinam Grass plant response rating: scale 0 to 100 (0 no effect, 100 complete control); for Plant response rating, Surinam Grass: scale 0 to 100, 0 no effect, 100 complete control
Summary of the method: as §1

palmer pigweed [3] = assay: Test E postemergence; type: in vivo, Amaranthus palmeri; conditions: post-emergence, read-out: Plant response rating, Pigweed, Palmer
Summary of the method: as §1

corn [4] = assay: Test E postemergence; type: in vivo, Zea mays; conditions: Zea mays, post-emergence
Summary of the method: as §1

[5] = Postemergence, 31 g ai/ha, scale 0 to 100
[6] = Postemergence, 62 g ai/ha, scale 0 to 100
[7] = Postemergence, 125 g ai/ha, scale 0 to 100
[8] = postemergence, 16 g ai/ha, scale 0 to 100, 0 no effect, 100 complete control

## N#Cc1cccc(Oc2ncc(Cl)cn2)c1-n1cc(Br)cn1 [Compound 52, 2-(4-bromo-1H-pyrazol-1-yl)-3-[(5-chloro-2-pyrimidinyl)oxy]benzonitrile]
Arrowleaf sida; 16 g ai/ha, preemergence
  Arrowleaf Sida plant response rating: 35
Arrowleaf sida; 31 g ai/ha, preemergence
  Arrowleaf Sida plant response rating: 40
Arrowleaf sida; Preemergence, 62 g ai/ha
  Plant response rating, Arrowleaf Sida: 60
Arrowleaf sida; preemergence, 125 g ai/ha
  Plant response rating, Arrowleaf Sida: 80
Arrowleaf sida; preemergence, 250 g ai/ha
  Plant response rating, Arrowleaf Sida: 100
soybean; 16 g ai/ha
  Soybean plant response rating: 0
soybean; 31 g ai/ha
  Soybean plant response rating: 0
soybean; 62 g ai/ha
  Soybean plant response rating: 0
soybean; 125 g ai/ha
  Plant response rating, Soybean: 60
soybean; 250 g ai/ha
  Plant response rating, Soybean: 90
Corn [1]; 16 g ai/ha
  Corn plant response rating: 0
Corn [1]; 31 g ai/ha
  Corn plant response rating: 0
Corn [1]; 62 g ai/ha
  Corn plant response rating: 0
Corn [1]; 125 g ai/ha
  Plant response rating, Corn: 0
Corn [1]; 250 g ai/ha
  Plant response rating, Corn: 40
Palmer pigweed [2]; 16 g ai/ha
  Pigweed, Palmer plant response rating: 25
Palmer pigweed [2]; 31 g ai/ha
  Pigweed, Palmer plant response rating: 100
Palmer pigweed [2]; 62 g ai/ha
  Pigweed, Palmer plant response rating: 100
Palmer pigweed [2]; 125 g ai/ha
  Plant response rating, Pigweed, Palmer: 100
Palmer pigweed [2]; 250 g ai/ha
  Plant response rating, Pigweed, Palmer: 100
Italian ryegrass; [5]
  pest or weed control at 31 g/ha: 0%
Italian ryegrass; [6]
  pest or weed control at 62 g/ha: 0%
Italian ryegrass; [7]
  pest or weed control at 125 g/ha: 10%
Italian ryegrass; [8]
  pest or weed control at 16 g/ha: 0%
Green foxtail; 16 g ai/ha
  Foxtail, Green plant response rating: 0
Green foxtail; 31 g ai/ha
  Foxtail, Green plant response rating: 20
Green foxtail; 62 g ai/ha
  Foxtail, Green plant response rating: 75
Green foxtail; 125 g ai/ha
  Plant response rating, Foxtail, Green: 80
Green foxtail; 250 g ai/ha
  Plant response rating, Foxtail, Green: 100
morningglory; 16 g ai/ha
  Morningglory plant response rating: 0
morningglory; 31 g ai/ha
  Morningglory plant response rating: 5
morningglory; 62 g ai/ha
  Morningglory plant response rating: 35
morningglory; 125 g ai/ha
  Plant response rating, Morningglory: 95
morningglory; 250 g ai/ha
  Plant response rating, Morningglory: 98
Giant foxtail; 16 g ai/ha
  Foxtail, Giant plant response rating: 0
Giant foxtail; 31 g ai/ha
  Foxtail, Giant plant response rating: 70
Giant foxtail; 62 g ai/ha
  Foxtail, Giant plant response rating: 70
Giant foxtail; 125 g ai/ha
  Plant response rating, Foxtail, Giant: 100
Giant foxtail; 250 g ai/ha
  Plant response rating, Foxtail, Giant: 100
Brazilian crabgrass; [5]
  pest or weed control at 31 g/ha: 30%
Brazilian crabgrass; [6]
  pest or weed control at 62 g/ha: 30%
Brazilian crabgrass; [7]
  pest or weed control at 125 g/ha: 40%
Brazilian crabgrass; [8]
  pest or weed control at 16 g/ha: 15%
Field bindweed; 16 g ai/ha
  Field Bindweed plant response rating: 0
Field bindweed; 31 g ai/ha
  Field Bindweed plant response rating: 0
Field bindweed; 62 g ai/ha
  Field Bindweed plant response rating: 25
Field bindweed; 125 g ai/ha
  Plant response rating, Field Bindweed: 80
Field bindweed; 250 g ai/ha
  Plant response rating, Field Bindweed: 95
barnyardgrass; [5]
  pest or weed control at 31 g/ha: 10%
barnyardgrass; [6]
  pest or weed control at 62 g/ha: 20%
barnyardgrass; [7]
  pest or weed control at 125 g/ha: 30%
barnyardgrass; [8]
  pest or weed control at 16 g/ha: 5%
goosegrass; 16 g ai/ha
  Goosegrass plant response rating: 5
goosegrass; 31 g ai/ha
  Goosegrass plant response rating: 50
goosegrass; 62 g ai/ha
  Goosegrass plant response rating: 65
goosegrass; 125 g ai/ha
  Plant response rating, Goosegrass: 98
goosegrass; 250 g ai/ha
  Plant response rating, Goosegrass: 100
velvetleaf; 16 g ai/ha
  Velvetleaf plant response rating: 0
velvetleaf; 31 g ai/ha
  Velvetleaf plant response rating: 0
velvetleaf; 62 g ai/ha
  Velvetleaf plant response rating: 75
velvetleaf; 125 g ai/ha
  Plant response rating, Velvetleaf: 85
velvetleaf; 250 g ai/ha
  Plant response rating, Velvetleaf: 90
Surinam grass; 16 g ai/ha
  Surinam Grass plant response rating: 0
Surinam grass; 31 g ai/ha
  Surinam Grass plant response rating: 0
Surinam grass; 62 g ai/ha
  Surinam Grass plant response rating: 0
Surinam grass; 125 g ai/ha
  Plant response rating, Surinam Grass: 10
Surinam grass; 250 g ai/ha
  Plant response rating, Surinam Grass: 10
Palmer pigweed [3]; [5]
  pest or weed control at 31 g/ha: 70%
Palmer pigweed [3]; [6]
  pest or weed control at 62 g/ha: 95%
Palmer pigweed [3]; [7]
  pest or weed control at 125 g/ha: 95%
Palmer pigweed [3]; [8]
  pest or weed control at 16 g/ha: 60%
Corn [4]; [5]
  corn plant response (injury) rating, 0-100 at 31 g/ha: 10%
Corn [4]; [6]
  corn plant response (injury) rating, 0-100 at 62 g/ha: 20%
Corn [4]; [7]
  corn plant response (injury) rating, 0-100 at 125 g/ha: 25%
Corn [4]; [8]
  corn plant response (injury) rating, 0-100 at 16 g/ha: 10%
